Results on 10 compounds are retold here after ChEMBL document CHEMBL1148663, “High-throughput screening for Hsp90 ATPase inhibitors” (Bioorg Med Chem Lett, 2006).

Experiment [1] relates to SK-BR-3. In words: Antiproliferative activity against human SKBr3 cells. In kind it is functional, cell-based.
In experiment [2] the target is Heat shock protein HSP90 (Homo sapiens, UniProt P07900+P08238). The experiment in a line: Inhibition of Hsp90 by recombinant ATPase assay. In kind it is functional.
The mark [3] stands for this setting: Homo sapiens, SK-BR-3, read-out: IC50.

Molecules are shown by their SMILES.

Turning to `CC1(C)CC2=Nc3ccccc3NC(c3cccc(O)c3O)C2=C(O)C1` (stereo not given), the IC50 in experiment [1] (setting [3]) was 66 µM; in experiment [2], 2.7 µM.

On to `O=c1c(Oc2ccc(F)cc2)coc2c(O)c(O)ccc12`, for which the IC50 result in experiment [1] (sk-br-3) is “Not Active”; in experiment [2], 3.2 µM.

Turning to `Cc1cc(O)nc(SCC(=O)c2ccc(O)c(O)c2)n1`, the IC50 result in experiment [1] (sk-br-3) was “Not Active”; in experiment [2], 2.3 µM.

For the compound `O=S(=O)(Nc1ccc(Cl)cc1O)c1ccccc1`, the IC50 stood at 75 µM in experiment [1] (setting [3]) and 2 µM in experiment [2].

`COc1ccc(O)c(-c2c[nH]nc2-c2cccs2)c1`: the IC50 result in experiment [1] (sk-br-3) is “Not Active”; in experiment [2], 3 µM.

Take `COc1cc(C2CC(c3ccccc3O)=NN2)ccc1O` (stereo not given): the IC50 in experiment [1] (setting [3]) stood at 48 µM; in experiment [2], 5.4 µM.

For `O=C1CC(=O)N(c2cccc(Cl)c2)N1`, the IC50 entry in experiment [1] (sk-br-3) is “Not Active”; in experiment [2], 4.1 µM.

As for `Cc1nc(N)sc1-c1csc(Nc2ccccn2)n1`, the figures for the IC50 result in experiment [1] (sk-br-3) and in experiment [2] were “Not Active” and 7 µM, respectively.

As for `O=C1CC(Nc2ccc(N3CCOCC3)cc2)C(=O)N1Cc1ccccc1` (stereo not given), the IC50 result is “Not Active” in experiment [1] (sk-br-3) and 1.9 µM in experiment [2].

In the case of `COc1cccc(C(=O)Nc2ccc(O)c(C)c2)c1`, the IC50 entry in experiment [1] (sk-br-3) is “Not Active”; in experiment [2] it was 2.5 µM.

As usually defined, the IC50 is the point on the concentration scale where inhibition reaches its midpoint.
